In patent publication US10806726B2, “Methods of using indazole-3-carb oxamides and their use as Wnt/B-catenin signaling pathway inhibitors” (Samumed, LLC, priority 2016, dated 2020):
pEC50: −log10 of the molar value.

Legend:
[1] = test system: Wnt-responsive promoter driving firefly luciferase in SW480 cells; assay: Wnt reporter (SP5 promoter-luciferase) screening assay in SW480 cells; type: cell-based; conditions: Homo sapiens, 24-40 h, top concentration ten micromolar
Summary of the method: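 SW480 (APC-mutant colon) cells stably transduced with lentiviral SP5-promoter (eight TCF/LEF sites) firefly luciferase, ~10,000 cells/well. Signals normalized to DMSO controls for EC50 fitting.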

[2] = test system: primary human mesenchymal stem cells (hMSCs); assay: Tenocyte differentiation screening in hMSCs (SCXA-positive cells, 4 days); type: cell-based; conditions: 96 h, fold change over DMSO
Summary of the method: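 Primary hMSCs at passage 3–6 were treated with compound, fixed and immunostained for SCXA, and SCXA-positive cells per well were counted by imaging. Counts were normalized to DMSO wells as fold change, averaged over triplicates, and EC50 was fitted, with high-dose values manually corrected for solubility.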

pEC50 [1]	pEC50 [2]	SMILES
6.67	< 4.00	O=C(Nc1ccc(N2CCCC2)nc1)c1n[nH]c2ccc(-c3cncc(N4CCOCC4)c3)cc12 [compound 187, 5-(5-Morpholinopyridin-3-yl)-N-(6-(pyrrolidin-1-yl)pyridin-3-yl)-1H-indazole-3-carboxamide]
7.18	< 4.00	O=C(Nc1cncc(F)c1)c1n[nH]c2ccc(-c3cncc(CN4CCCCC4)c3)cc12 [compound 168, N-(5-Fluoropyridin-3-yl)-5-(5-(piperidin-1-ylmethyl)pyridin-3-yl)-1H-indazole-3-carboxamide]
5.61	5.80	CN1CCC(NC(=O)c2n[nH]c3ccc(-c4cncc(CN5CCCCC5)c4)cc23)CC1 [compound 87, N-(1-Methylpiperidin-4-yl)-5-(5-(piperidin-1-ylmethyl)pyridin-3-yl)-1H-indazole-3-carboxamide]
8.05	5.92	O=C(Nc1cccnc1)c1n[nH]c2ccc(-c3cncc(CN4CCC(F)(F)C4)c3)cc12 [compound 188, 5-(5-((3,3-Difluoropyrrolidin-1-yl)methyl)pyridin-3-yl)-N-(pyridin-3-yl)-1H-indazole-3-carboxamide]
6.05 to 6.09	< 4.00	C[C@@H]1CCC[C@H](C)N1Cc1cncc(-c2ccc3[nH]nc(C(=O)Nc4cccnc4)c3c2)c1 [compound 84, 5-(5-(((2R,6 S)-2,6-Dimethylpiperidin-1-yl)methyl)pyridin-3-yl)-N-(pyridin-3-yl)-1H-indazole-3-carboxamide]
6.37	< 4.00	O=C(Nc1cccc(F)c1)c1n[nH]c2ccc(-c3cncc(CN4CCCCC4)c3)cc12 [compound 162, N-(3-Fluorophenyl)-5-(5-(piperidin-1-ylmethyl)pyridin-3-yl)-1H-indazole-3-carboxamide]
6.07	5.57	O=C(NCc1cccnc1)c1n[nH]c2ccc(-c3cncc(CN4CCCCC4)c3)cc12 [compound 76, 5-(5-(Piperidin-1-ylmethyl)pyridin-3-yl)-N-(pyridin-3-ylmethyl)-1H-indazole-3-carboxamide]
6.62	< 4.00	O=C(Nc1ccc2c(c1)OCO2)c1n[nH]c2ccc(-c3cncc(CN4CCCCC4)c3)cc12 [compound 78, N-(Benzo[d][1,3]dioxol-5-yl)-5-(5-(piperidin-1-ylmethyl)pyridin-3-yl)-1H-indazole-3-carboxamide]
7.32	5.26	O=C(Nc1ccc(N2CCC2)nc1)c1n[nH]c2ccc(-c3cncc(CN4CCCCC4)c3)cc12 [compound 174, N-(6-(Azetidin-1-yl)pyridin-3-yl)-5-(5-(piperidin-1-ylmethyl)pyridin-3-yl)-1H-indazole-3-carboxamide]
6.85 to 7.11	< 4.00	O=C(Nc1cnccn1)c1n[nH]c2ccc(-c3cncc(CN4CCCCC4)c3)cc12 [compound 81, 5-(5-(Piperidin-1-ylmethyl)pyridin-3-yl)-N-(pyrazin-2-yl)-1H-indazole-3-carboxamide]
7.31	5.31	O=C(Nc1ccc(N2CCC(O)CC2)nc1)c1n[nH]c2ccc(-c3cncc(CN4CCCCC4)c3)cc12 [compound 169, N-(6-(4-Hydroxypiperidin-1-yl)pyridin-3-yl)-5-(5-(piperidin-1-ylmethyl)pyridin-3-yl)-1H-indazole-3-carboxamide]
7.31	< 4.00	O=C(Nc1ccc(N2CCCC2)nc1)c1n[nH]c2ccc(-c3cncc(CN4CCC(F)(F)C4)c3)cc12 [compound 183, 5-(5-((3,3-Difluoropyrrolidin-1-yl)methyl)pyridin-3-yl)-N-(6-(pyrrolidin-1-yl)pyridin-3-yl)-1H-indazole-3-carboxamide]

More lines, now with the values behind:

SMILES	pEC50 [1]	pEC50 [2]
N#Cc1ccc(NC(=O)c2n[nH]c3ccc(-c4cncc(CN5CCCCC5)c4)cc23)cn1 [compound 62, N-(6-Cyanopyridin-3-yl)-5-(5-(piperidin-1-ylmethyl)pyridin-3-yl)-1H-indazole-3-carboxamide]	7.80	< 4.00
CN(C)Cc1cncc(-c2ccc3[nH]nc(C(=O)Nc4ccc(Oc5ccccc5F)nc4)c3c2)c1 [compound 36, 5-(5-((Dimethylamino)methyl)pyridin-3-yl)-N-(6-(2-fluorophenoxy)pyridin-3-yl)-1H-indazole-3-carboxamide]	6.56	< 4.00
CCOc1ccc(NC(=O)c2n[nH]c3ccc(-c4cncc(CN5CCCCC5)c4)cc23)cn1 [compound 45, N-(6-Ethoxypyridin-3-yl)-5-(5-(piperidin-1-ylmethyl)pyridin-3-yl)-1H-indazole-3-carboxamide]	6.96	5.01
N#Cc1cncc(-c2ccc3[nH]nc(C(=O)Nc4cccnc4)c3c2)c1 [compound 66, 5-(5-Cyanopyridin-3-yl)-N-(pyridin-3-yl)-1H-indazole-3-carboxamide]	≤ 5.00	< 4.00
N#Cc1ccc(NC(=O)c2n[nH]c3ccc(-c4cncc(CN5CCCC5)c4)cc23)cn1 [compound 52, N-(6-Cyanopyridin-3-yl)-5-(5-(pyrrolidin-1-ylmethyl)pyridin-3-yl)-1H-indazole-3-carboxamide]	7.24	< 4.00
O=C(Nc1ccc(C(F)(F)F)nc1)c1n[nH]c2ccc(-c3cncc(CN4CCOCC4)c3)cc12 [compound 68, 5-(5-(Morpholinomethyl)pyridin-3-yl)-N-(6-(trifluoromethyl)pyridin-3-yl)-1H-indazole-3-carboxamide]	7.32	5.34
O=C(Nc1ccc(Oc2cccc(F)c2)nc1)c1n[nH]c2ccc(-c3cccnc3)cc12 [compound 19, N-(6-(3-Fluorophenoxy)pyridin-3-yl)-5-(pyridin-3-yl)-1H-indazole-3-carboxamide]	6.97	< 4.00
CN(C)Cc1cncc(-c2ccc3[nH]nc(C(=O)Nc4cccnc4)c3c2)c1 [compound 40, 5-(5-((Dimethylamino)methyl)pyridin-3-yl)-N-(pyridin-3-yl)-1H-indazole-3-carboxamide]	7.19	5.29
O=C(Nc1ccnnc1)c1n[nH]c2ccc(-c3cccnc3)cc12 [compound 14, N-(Pyridazin-4-yl)-5-(pyridin-3-yl)-1H-indazole-3-carboxamide]	6.97	4.30
O=C(Nc1ccc(C(F)(F)F)nc1)c1n[nH]c2ccc(-c3cccnc3)cc12 [compound 3, 5-(Pyridin-3-yl)-N-(6-(trifluoromethyl)pyridin-3-yl)-1H-indazole-3-carboxamide]	6.70	< 4.00
O=C(Nc1ccc(C(F)(F)F)nc1)c1n[nH]c2ccc(-c3cncc(CN4CCCCC4)c3)cc12 [compound 63, 5-(5-(Piperidin-1-ylmethyl)pyridin-3-yl)-N-(6-(trifluoromethyl)pyridin-3-yl)-1H-indazole-3-carboxamide]	7.00	4.99
COc1ccc(-c2ccc3[nH]nc(C(=O)Nc4cccnc4)c3c2)cn1 [compound 54, 5-(6-Methoxypyridin-3-yl)-N-(pyridin-3-yl)-1H-indazole-3-carboxamide]	6.80	< 4.00
